This is an account of results in paper PMC4858918, “Improving the N-terminal diversity of sansanmycin through mutasynthesis” (Microbial Cell Factories, 2016).

Common to all, as to assay: MIC, microplate Alamar blue assay (MABA)
Common to all, as to assay type: cell-based
In general terms: The colour change of resazurin is a common sign of viable cells or microbes.

In experiment [1] the test system is M. tuberculosis FJ05189 (MDR clinical isolate). As to conditions: Mycobacterium tuberculosis, read-out: MIC M. tuberculosis FJ05189.
In experiment [2] the test system is M. tuberculosis FJ05120 (MDR clinical isolate). The note with it: Mycobacterium tuberculosis, read-out: MIC M. tuberculosis FJ05120.
In experiment [3] the test system is M. tuberculosis FJ05195 (XDR clinical isolate). The note with it: Mycobacterium tuberculosis, read-out: MIC M. tuberculosis FJ05195.

In brackets after ≈: the same amount, converted by molar mass. Bounds are passed on as bounds.

Take `CC[C@@H](CO)NCCN[C@@H](CC)CO` [Ethambutol]: the MIC in experiment [1] was 2 µg/mL (≈ 9.79 µM); in experiment [2], 0.5 µg/mL (≈ 2.45 µM); in experiment [3], above 128 µg/mL.

For `[H]/N=C(/N)N[C@H]1[C@H](O)[C@@H](O)[C@H](O[C@@H]2O[C@@H](C)[C@](O)(C=O)[C@H]2O[C@@H]2O[C@@H](CO)[C@H](O)[C@@H](O)[C@@H]2NC)[C@@H](N/C(N)=N\[H])[C@@H]1O` [Streptomycin], the figures for the minimum inhibitory concentration (MIC) in experiment [1], in experiment [2] and in experiment [3] were below 0.06 µg/mL, below 0.06 µg/mL and above 128 µg/mL, respectively.

With `CO[C@H]1/C=C/O[C@@]2(C)Oc3c(C)c(O)c4c(O)c(c(/C=N/N5CCN(C)CC5)c(O)c4c3C2=O)NC(=O)/C(C)=C\C=C\[C@H](C)[C@H](O)[C@@H](C)[C@@H](O)[C@@H](C)[C@H](OC(C)=O)[C@@H]1C` [Rifampicin], the minimum inhibitory concentration (MIC) in experiment [1] was 4 µg/mL (≈ 4.86 µM); in experiment [2], above 128 µg/mL; in experiment [3], above 128 µg/mL.

With `NNC(=O)c1ccncc1` [Isoniazid], the minimal inhibitory concentration (MIC) was 8 µg/mL (≈ 58.3 µM) in experiment [1], 16 µg/mL (≈ 117 µM) in experiment [2] and above 128 µg/mL in experiment [3].

Broadly, the MIC is the least concentration at which growth counts as inhibited.
